Among the data in patent US20120245161A1 (SANOFI, priority 2009, published 2012) are Ki values, retold here.

Several values for one entry are separate records, joined by “and”; a condition that tells them apart may be missing. Identical values can stand only once. Counter-ions that a name gives are not always drawn. Like-named read-outs stand apart in the source and are kept apart here.

Broadly, the Ki is a measure of affinity in units of concentration, obtained from inhibition or displacement.

The target in this experiment is T1, recombinant human beta tryptase (Homo sapiens, UniProt P20231).
T1 construct: made in house; host or cells: yeast cells
T1 sequence (P20231 31-275): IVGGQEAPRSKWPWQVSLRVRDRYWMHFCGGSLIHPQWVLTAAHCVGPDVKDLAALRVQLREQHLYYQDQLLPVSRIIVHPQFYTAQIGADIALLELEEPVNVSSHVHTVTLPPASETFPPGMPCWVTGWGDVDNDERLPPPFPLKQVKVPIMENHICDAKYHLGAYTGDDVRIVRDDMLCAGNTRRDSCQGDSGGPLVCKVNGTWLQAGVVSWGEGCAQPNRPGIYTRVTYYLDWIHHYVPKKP
As to the kind of experiment: beta-Tryptase inhibition, chromogenic enzyme assay (substrate S2366, read at 405 nm). Type of experiment: biochemical. An excerpt:
Inhibition of this catalytic activity may be measured by the in vitro enzyme assay and the cellular assay.
Tryptase inhibition activity is confirmed using either isolated human lung tryptase or recombinant human beta tryptase expressed in yeast cells. Essentially equivalent results are obtained using isolated native enzyme or the expressed enzyme. The assay procedure employs a 96 well microplate (Costar 3590) using L-pyroglutamyl-L-prolyl-L-arginine-para-nitroanilide (S2366: Quadratech) as substrate (essentially as described by McEuen et. al. Biochem Pharm, 1996, 52, pages 331-340). Assays are performed at room temperature using 0.5 mM substrate (2×Km) and the microplate is read on a microplate reader (Beckman Biomek Plate reader) at 405 nm wavelength.
Materials and Methods for Tryptase primary screen (Chromogenic assay)
S2366 (Stock solutions of 2.5 mM).
Purified recombinant beta Tryptase Stocks of 310 μg/mL. Protocol (Single point determination) • Add 60 μL of diluted substrate (final concentration of 500 μM in assay buffer) to each well • Add compound in duplicates, final concentration of 20 volume 20 • Add enzyme at a final concentration of 50 ng/mL in a volume of 20 • Total volume for each well is 100 • Agitate briefly to mix and incubate at room temp in the dark for 30 minutes • Read absorbencies at […] Each plate has the following controls: • Totals: 60 μL of substrate, 20 μL of buffer (with 0.2% final concentration of DMSO), • 20 μL of enzyme Non-specific: 60 μL of substrate, 40 μL of buffer (with 0.2% DMSO) Totals: 60 μL of substrate, 20 μL of buffer (No DMSO), 20 μL of enzyme Non-specific: 60 μL of substrate, 40 μL of buffer (No DMSO) Protocol (IC50 and Ki determination)
The protocol is essentially the same as above except that the compound is added in duplicates at the following final concentrations: 0.01, 0.03, 0.1, 0.3, 1, 3, 10 μM (All dilutions carried out manually). For every assay, whether single point or IC50 determination, a standard compound is used to derive IC50 for comparison. From the IC50 value, the Ki can be calculated using the following formula: Ki=IC50/(1+[Substrate]/Km).

Where [1] appears, read: Tryptase Ki (nM), Ki calculated from IC50: Ki=IC50/(1+[Substrate]/Km), 0.5 mM substrate, room temperature.
Where [2] appears, read: Ki calculated from IC50: Ki=IC50/(1+[Substrate]/Km), 0.5 mM substrate, room temperature, read-out: Tryptase Ki.

For the molecule `COCCn1cc(C(=O)N2CCC(c3cc(CN)ccc3F)CC2)c2c(NC(=O)N3CCOCC3)cccc21` [Example 99, Morpholine-4-carboxylic acid [3-[4-(5-aminomethyl-2-fluoro-phenyl)-piperidine-1-carbonyl]-1-(2-methoxy-ethyl)-1H-indol-4-yl]-amide hydrochloride], under setting [1], the Ki is 25 nM.

On to `COCCn1cc(C(=O)N2CCC(c3cc(CN)ccc3F)CC2)c2c(C(=O)N3CCCC3)cccc21` [Example 108, [4-(5-Aminomethyl-2-fluoro-phenyl)-piperidin-1-yl]-[1-(2-methoxy-ethyl)-4-(pyrrolidine-1-carbonyl)-1H-indol-3-yl]-methanone hydrochloride], for which the Ki under setting [1] is 15 nM.

As to `COCCn1cc(C(=O)N2CCC(c3cc(CN)ccc3F)CC2)c2c(OC(C)C)cccc21` [Example 68, [4-(5-Aminomethyl-2-fluoro-phenyl)-piperidin-1-yl]-[4-isopropoxy-1-(2-methoxy-ethyl)-1H-indol-3-yl]-methanone hydrochloride], under setting [1], the inhibition constant (Ki) was 35 nM.

As to `COCCn1cc(C(=O)N2CCC(c3cc(CN)ccc3F)CC2)c2cccc(C3CC3)c21` [Example 6, [4-(5-Aminomethyl-2-fluoro-phenyl)-piperidin-1-yl]-[7-cyclopropyl-1-(2-methoxy-ethyl)-1H-indol-3-yl]-methanone hydrochloride], the Ki under setting [1] was 20 nM.

For `NCc1ccc(F)c(C2CCN(C(=O)c3cn(CCOC(F)(F)F)c4cccc(-c5ccncc5)c34)CC2)c1` [Example 78, [4-(5-Aminomethyl-2-fluoro-phenyl)-piperidin-1-yl]-[4-pyridin-4-yl-1-(2-trifluoromethoxy-ethyl)-1H-indol-3-yl]-methanone dihydrochloride], the Ki under setting [2] is 117 nM.

In the case of `COCCn1cc(C(=O)N2CCC(c3cc(CN)ccc3F)CC2)c2c(C(=O)O)cccc21` [Example 109, 3-[4-(5-Aminomethyl-2-fluoro-phenyl)-piperidine-1-carbonyl]-1-(2-methoxy-ethyl)-1H-indole-4-carboxylic acid trifluoroacetate], under setting [2], the inhibition constant (Ki) was 142 nM.

Take `COCCn1cc(C(=O)N2CCC(c3cc(CN)ccc3F)CC2)c2c(-c3ccnc(C)c3)cccc21` [Example 83, [4-(5-Aminomethyl-2-fluoro-phenyl)-piperidin-1-yl]-[1-(2-methoxy-ethyl)-4-(2-methyl-pyridin-4-yl)-1H-indol-3-yl]-methanone dihydrochloride]: under setting [2], the Ki is 5 nM.

Consider `Cc1cccc2c(C(=O)N3CCC(c4cc(CN)ccc4F)CC3)cn(CCc3ccccc3)c12` [Example 5, [4-(5-Aminomethyl-2-fluoro-phenyl)-piperidin-1-yl]-(7-methyl-1-phenethyl-1H-indol-3-yl)-methanone hydrochloride], for which the Ki under setting [1] was 96 nM and 56 nM; the inhibitory constant (Ki) (Tryptase Ki (nM), additional value in parentheses tagged "8923" (code not explained)) was 11 nM.

As to `COCCn1cc(C(=O)N2CCC(c3cc(CN)ccc3F)CC2)c2c(NC(=O)C3CCN(C)CC3)cccc21` [Example 97, 1-Methyl-piperidine-4-carboxylic acid [3-[4-(5-aminomethyl-2-fluoro-phenyl)-piperidine-1-carbonyl]-1-(2-methoxy-ethyl)-1H-indol-4-yl]-amide hydrochloride], under setting [1], the Ki is 28 nM.

`COCCn1cc(C(=O)N2CCC(c3cc(CN)ccc3F)CC2)c2c(-c3cncnc3)cccc21` [Example 61, [4-(5-Aminomethyl-2-fluoro-phenyl)-piperidin-1-yl]-[1-(2-methoxy-ethyl)-4-pyrimidin-5-yl-1H-indol-3-yl]-methanone dihydrochloride]: the Ki under setting [2] is 17 nM.

As to `COCCn1cc(C(=O)N2CCC(c3cc(CN)ccc3F)CC2)c2c(NC(=O)c3cc4cccc(C)c4[nH]3)cccc21` [Example 121, 7-Methyl-1H-indole-2-carboxylic acid [3-[4-(5-aminomethyl-2-fluoro-phenyl)-piperidine-1-carbonyl]-1-(2-methoxy-ethyl)-1H-indol-4-yl]-amide dihydrochloride], the Ki under setting [1] was 99 nM.

Regarding `Cc1cccc2c(C(=O)N3CCC(c4cccc(CN)c4)CC3)cn(CCN3CCOCC3)c12` [Example 2, [4-(3-Aminomethyl-phenyl)-piperidin-1-yl]-[7-methyl-1-(2-morpholin-4-yl-ethyl)-1H-indol-3-yl]-methanone hydrochloride], the inhibition constant Ki under setting [1] is 234 nM.

Regarding `Cc1cccc2c(C(=O)N3CCC(c4cc(CN)ccc4F)CC3)cn(CCn3ccnc3)c12` [Example 62, [4-(5-Aminomethyl-2-fluoro-phenyl)-piperidin-1-yl]-[1-(2-imidazol-1-yl-ethyl)-7-methyl-1H-indol-3-yl]-methanone dihydrochloride], under setting [2], the inhibition constant (Ki) is 22 nM.

With `CCN(CC)CCn1cc(C(=O)N2CCC(c3cc(CN)ccc3F)CC2)c2ccccc21` [Example 37, [4-(5-Aminomethyl-2-fluoro-phenyl)-piperidin-1-yl]-[1-(2-diethylamino-ethyl)-1H-indol-3-yl]-methanone dihydrochloride], under setting [2], the Ki is 87 nM.

As to `CCCn1cc(-c2cccc3c2c(C(=O)N2CCC(c4cc(CN)ccc4F)CC2)cn3CCOC)cn1` [Example 67, [4-(5-Aminomethyl-2-fluoro-phenyl)-piperidin-1-yl]-[1-(2-methoxy-ethyl)-4-(1-propyl-1H-pyrazol-4-yl)-1H-indol-3-yl]-methanone hydrochloride], under setting [1], the inhibition constant Ki was 12 nM.

Consider `COCCn1cc(C(=O)N2CCC(c3cc(CN)ccc3F)CC2)c2c(-c3ccc(F)cc3)cccc21` [Example 71, [4-(5-Aminomethyl-2-fluoro-phenyl)-piperidin-1-yl]-[4-(4-fluoro-phenyl)-1-(2-methoxy-ethyl)-1H-indol-3-yl]-methanone hydrochloride], for which the Ki under setting [1] is 49 nM.

Turning to `CCOc1cccc2c1c(C(=O)N1CCC(c3cc(CN)ccc3F)CC1)cn2CCOC` [Example 57, [4-(5-Aminomethyl-2-fluoro-phenyl)-piperidin-1-yl]-[4-ethoxy-1-(2-methoxy-ethyl)-1H-indol-3-yl]-methanone hydrochloride], the Ki under setting [1] is 54 nM.

For `Cc1cccc2c(C(=O)N3CCC(c4cc(CN)ccc4F)CC3)cn(CCCF)c12` [Example 16, [4-(5-Aminomethyl-2-fluoro-phenyl)-piperidin-1-yl]-[1-(3-fluoro-propyl)-7-methyl-1H-indol-3-yl]-methanone hydrochloride], the inhibitory constant (Ki) under setting [1] was 97 nM.

Take `NCc1ccc(F)c(C2CCN(C(=O)c3cn(CCc4ccccn4)c4ccccc34)CC2)c1` [Example 40, [4-(5-Aminomethyl-2-fluoro-phenyl)-piperidin-1-yl]-[1-(2-pyridin-2-yl-ethyl)-1H-indol-3-yl]-methanone dihydrochloride]: under setting [2], the inhibition constant Ki was 25 nM.

For the molecule `Cc1cccc2c(C(=O)N3CCC(c4cc(CN)ccc4F)CC3)cn(CCOCCO)c12` [Example 21, [4-(5-Aminomethyl-2-fluoro-phenyl)-piperidin-1-yl]-{1-[2-(2-hydroxy-ethoxy)-ethyl]-7-methyl-1H-indol-3-yl}-methanone hydrochloride], the inhibitory constant (Ki) under setting [1] is 28 nM.

As to `COCCn1cc(C(=O)N2CCC(c3cc(CN)ccc3F)CC2)c2c(-c3ccnc(OC)c3)cccc21` [Example 85, [4-(5-Aminomethyl-2-fluoro-phenyl)-piperidin-1-yl]-[1-(2-methoxy-ethyl)-4-(2-methoxy-pyridin-4-yl)-1H-indol-3-yl]-methanone dihydrochloride], the Ki under setting [2] was 9 nM.

`CC(C)(O)CCn1cc(C(=O)N2CCC(c3cc(CN)ccc3F)CC2)c2ccccc21` [Example 50, [4-(5-Aminomethyl-2-fluoro-phenyl)-piperidin-1-yl]-[1-(3-hydroxy-3-methyl-butyl)-1H-indol-3-yl]-methanone hydrochloride]: under setting [1], the inhibition constant Ki was 241 nM.

Consider `COCCn1cc(C(=O)N2CCC(c3cc(CN)ccc3F)CC2)c2c(-c3ccccn3)cccc21` [Example 74, [4-(5-Aminomethyl-2-fluoro-phenyl)-piperidin-1-yl]-[1-(2-methoxy-ethyl)-4-pyridin-2-yl-1H-indol-3-yl]-methanone dihydrochloride], for which the Ki under setting [2] was 26 nM.

Take `COCCn1cc(C(=O)N2CCC(c3cc(CN)ccc3C(F)F)CC2)c2cccc(C)c21` [Example 9, [4-(5-Aminomethyl-2-difluoromethyl-phenyl)-piperidin-1-yl]-[1-(2-methoxy-ethyl)-7-methyl-1H-indol-3-yl]-methanone hydrochloride]: the inhibitory constant (Ki) under setting [1] is 203 nM.
